Experimental data from patent US11286241B2, “Compositions and methods for treating cancer” (GLAX LLC, priority 2018, dated 2022).
“Also recorded” adds a separate entry of the source.

Tests used:
[1] = system: pancreatic cancer AsPC-1 cells; assay: Apoptosis in pancreatic cancer AsPC-1 cells; assay type: cell-based
[2] = system: prostate cancer PC-3 cells; assay: Combination apoptosis in prostate cancer PC-3 cells; assay type: cell-based; settings: with PF05212384
[3] = system: human breast cancer cells; assay: Combination cell viability in human breast cancer cells (FIG. 17); assay type: cell-based
[4] = system: Gli pathway; assay: Gli pathway in HCC (FIG. 13); assay type: cell-based
[5] = system: human normal hepatocytes; assay: Cell viability of normal hepatocytes (FIG. 13); assay type: cell-based
[6] = system: human normal pancreatic ductal epithelial (HPNE) cells; assay: Cell viability of normal pancreatic ductal epithelial cells (FIG. 12C); assay type: cell-based
[7] = system: Gli reporter; assay: Gli reporter activity (FIG. 12E); assay type: cell-based
[8] = system: human breast cancer cells; assay: Cell viability of human breast cancer cells (FIG. 12D); assay type: cell-based
[9] = system: human brain cancer cells; assay: Cell viability of human brain cancer cells (FIG. 15); assay type: cell-based
[10] = system: pancreatic cancer xenograft; assay: Xenografted tumor growth, pancreatic cancer model (FIG. 18); assay type: in vivo
[11] = system: Gli1, Patched-1, Cyclin D1, Bcl-2, and Nanog; assay: Expression of Gli target genes in breast cancer cells (FIG. 12F); assay type: cell-based
[12] = system: hepatocarcinoma (HCC)/liver cancer cells; assay: Cell viability of hepatocarcinoma cells (FIG. 13); assay type: cell-based
[13] = system: pancreatic cancer cells; assay: Combination cell viability in pancreatic cancer cells (FIG. 17); assay type: cell-based, human
[14] = system: brain cancer stem cells; assay: Cell viability of brain cancer stem cells (FIG. 15); assay type: cell-based, human
[15] = system: human normal ductal epithelial (HMEC) cells; assay: Cell viability of normal ductal epithelial cells (FIG. 12D); assay type: cell-based
[16] = system: liver cancer HEPG2 cells; assay: Apoptosis in liver cancer HEPG2 cells; assay type: cell-based
[17] = system: prostate cancer DU145 cells; assay: Combination apoptosis in prostate cancer DU145 cells; assay type: cell-based; settings: with PF05212384
[18] = system: prostate cancer PC-3 cells; assay: Apoptosis in prostate cancer cells (FIG. 14); assay type: cell-based
[19] = system: human pancreatic cancer cells; assay: Cell viability of human pancreatic cancer cells (FIG. 12A, B); assay type: cell-based
[20] = system: liver cancer xenograft; assay: Xenografted tumor growth, liver cancer model (FIG. 18); assay type: in vivo
[21] = system: prostate cancer xenograft; assay: Xenografted tumor growth, prostate cancer model (FIG. 18); assay type: in vivo
[22] = system: human prostate cancer cells; assay: Combination cell viability in human prostate cancer cells (FIG. 16); assay type: cell-based; settings: with PF05212384 (PI3K/mTOR dual inhibitor)
[23] = system: colorectal cancer HCT116 cells; assay: Combination apoptosis in colorectal cancer HCT116 cells; assay type: cell-based; settings: with PF05212384, listed as SST7
[24] = system: breast cancer xenograft; assay: Xenografted tumor growth, breast cancer model (FIG. 18); assay type: in vivo
[25] = system: liver cancer HEP3B cells; assay: Combination apoptosis in liver cancer HEP3B cells; assay type: cell-based; settings: with PF05212384, listed as SST7
[26] = system: lung cancer A549 cells; assay: Apoptosis in lung cancer cells (FIG. 14); assay type: cell-based
[27] = with histone deacetylase inhibitor SAHA

With OC(CNc1ccc(Cl)cc1)CNc1ccc(-c2nc3ccccc3o2)cc1 (stereo not shown) [Compound 8, 1-(4-(benzo[d]oxazol-2-yl)phenylamino)-3-(4-chlorophenylamino)propane-2-ol] the apoptosis [1] was “induces apoptosis”, the “apoptosis, combination” value [2] was “act in a cooperative manner to induce apoptosis” and the “cell viability, combination” value ([3]; with PF05212384) was “co-operates”. For the same compound, the “cell viability, combination” value [3, 27] was “co-operates”, the Gli pathway [4] was “inhibits Gli pathway” and the cell viability [5] was “has no effect”. For the same compound, the cell viability [6] was “has no effect”, the Gli reporter activity [7] was “inhibits” and the cell viability [8] was “inhibits cell viability”. The cell viability [9] was “inhibits cell viability”, the xenografted tumor growth [10] was “inhibits xenografted tumor growth” and the “expression of Gli1, Patched-1, Cyclin D1, Bcl-2, and Nanog” value [11] was “inhibits”. For the same compound, the cell viability [12] was “inhibits cell viability”, the “cell viability, combination” value ([13]; with PF05212384) was “co-operates” and the “cell viability, combination” value [13, 27] was “co-operates”. For the same compound, the cell viability [14] was “inhibits cell viability”, the cell viability [15] was “has no effect” and the apoptosis [16] was “induces apoptosis”. For the same compound, the “apoptosis, combination” value [17] was “act in a cooperative manner to induce apoptosis”, the apoptosis [18] was “induces apoptosis” and the cell viability [19] was “inhibits cell viability”. The xenografted tumor growth [20] was “inhibits xenografted tumor growth”, the xenografted tumor growth [21] was “inhibits xenografted tumor growth” and the “cell viability, combination” value [22] was “co-operates”. The “apoptosis, combination” value [23] was “synergistic; also recorded: act in a cooperative manner to induce apoptosis”, the xenografted tumor growth [24] was “inhibits xenografted tumor growth” and the “apoptosis, combination” value [25] was “synergistic; also recorded: act in a cooperative manner to induce apoptosis”. For the same compound, the apoptosis [26] was “induces apoptosis”.
